Data set [1] deals with Staphylococcus aureus (ATCC29213). Briefly: Broth microdilution MIC, reference strain. It is filed as cell-based. Conditions: 0.08–40 μM, read-out: MIC S. aureus ATCC 29213. On the procedure: (§1) The reference strains of Staphylococcus aureus (ATCC29213) and Enterococcus faecalis (ATCC29212) were purchased from the ATCC (Manassas, VA, USA).
(§2) Microdilution experiments were performed according to the standards of EUCAST [85]. The bacterial isolates to be tested were grown on Mueller–Hinton agar plates. The inoculum density of bacteria was set at 5.0 × 10^5 CFU/mL in microtiter plates in a final volume of 200 μL Mueller–Hinton broth. The tested concentration range was 0.08–40 μM (10 concentrations, twofold serial dilutions), and a drug-free growth control and an inoculum-free negative control were included. The inoculated plates were incubated for 24 h at 37 °C, then visually assessed. Minimum inhibitory concentration (MIC) was defined as the lowest concentration with a 50%≤ inhibitory effect compared to the growth control. All experiments were performed at least twice in duplicate.

For data set [2], the system named is Enterococcus faecalis (ATCC29212). Kind of data set: Broth microdilution MIC, reference strain. The data set is classed as cell-based. The following applies: 24 h, tested range 0.08–40 μM, read-out: MIC E. faecalis ATCC 29,212. The protocol:
as §1, §2
Background: In broth dilution the organism is exposed to a series of concentrations in liquid medium.

Data set [3] has as its system primary human dermal fibroblasts. Briefly: MTT reduction assay, early toxicity, 4 h treatment. Conditions: up to 100 μM. It is filed as cell-based. The protocol: (§3) The complexes described above are intended to replace registered platinum complexes. Platinum complexes constitute the core of the chemotherapy regimen used in ovarian cancer; therefore, we used a cellular model of ovarian cancer, A2780, and primary human dermal fibroblasts as models of non-transformed cells (controls). For the characterization of the complexes, we used an MTT assay after 4 h of treatment for the detection of early toxicity and an SRB assay 48 h after treatment for the detection of cytostasis.
(§4) An MTT reduction assay was measures the activity of mitochondrial complex I and can be used to detect toxicity. The assay was performed in a manner similar to that described in [84]. Briefly, cells were plated in 96-well plates the day before the assay. Cells were treated with the compounds for 4 h; then, MTT was added to a 0.5 mg/mL final concentration, and cells were incubated at 37 °C in a cell incubator for 40–60 min as a function of the cell line being assessed. Culture medium was removed, the reduced MTT dye was dissolved in dimethyl-sulfoxide, and plates were measured in a plate photometer (Thermo Scientific Multiscan GO spectrophotometer, Waltham, MA, USA) at 540 nm. On each plate, wells were designed to contain vehicle-treated cells. In calculations, the readings for these wells were considered to 1, and all readings were expressed relative to these values.
(§5) Statistical analysis was performed using version 8.0.1 of GraphPad Prism. Values were tested for normal distribution using the Shapiro–Wilk normality test. Nonlinear regression was performed using the built-in “[Inhibitor] vs. response—Variable slope (four parameters), least square fit” utility of GraphPad, which yielded IC50 and Hill slope values if the sigmoid curves reached a plateau of inhibition and there was no decrease between two subsequent data points or when inhibition was over 90%. In other cases, the percentage of inhibition was taken for the maximum concentration (100 μM).

The test system of data set [4] is methicillin-resistant Staphylococcus aureus (MRSA) clinical isolates. Kind of data set: Broth microdilution MIC, clinical MRSA isolates. It is filed as cell-based. Conditions: 24 h, 0.08–40 μM. On the procedure:
(§6) We used a set of clinical isolates of S. aureus and E. faecium that were collected at the Medical Center of the University of Debrecen (Hungary) between 1 January 2018. and 31 December 2020. The clinical isolates were identified using a Microflex MALDI-TOF mass spectrometer (Bruker, Billerica, MA, USA). The antibiotic susceptibility of the isolates was tested following the European Committee on Antimicrobial Susceptibility Testing (EUCAST) guidelines, which were valid at the time of collection.
as §2

Data set [5] in a line: Distribution coefficient (logD), n-octanol-PBS. It is filed as physicochemical. The following applies: n-octanol-PBS (pH = 7.4) system. On the procedure: The logD values of the newly synthesized complexes were determined according to a procedure described in our previous publications. page 64: Ir-7b +1.17 Rh-7b +1.41 Ru-7c +1.31 Os-7c +1.59 Ir-7c +1.40 Rh-7c +1.13 Ru-7d +1.26 Os-7d +1.42 Ir-7d +1.30 Rh-7d +1.04 Ru-7e +2.22 Os-7e +2.21 Ir-7e +1.39 Rh-7e +1.66 *logD was determined in an n-octanol-PBS (pH = 7.4) system 64 (14 pictures or pasted objects on this page, not shown here)

Data set [6] has as its system A2780 cells. Briefly: SRB binding assay, cytostasis, 48 h treatment. It is filed as cell-based. Conditions: for A2780 SRB Max Inhibition: up to 100 μM, ND = not detectable. On the procedure: as §3
An SRB assay measures protein content of cells in correlation with the cell number in an assay well and can therefore be used to assess cell proliferation or long-term cytostasis. Cells were seeded in 96-well plates the day before the assay. Cells were treated with the compounds for 48 h. Then medium was removed, and cells were fixed with 10% trichloroacetic acid. Fixed cells were washed in distilled water 3 times, followed by staining with SRB (0.4 m/V% dissolved in 1% acetic acid) for 10 min. Stained cells were washed in 1% acetic acid 5 times; acetic acid was removed, and cells were left to dry. Protein-bound SRB was released by adding 100 μL 10 mM Tris base. Plates were measured in a plate photometer (Thermo Scientific Multiscan GO spectrophotometer, Waltham, MA, USA) at 540 nm. On each plate, wells were designed to contain vehicle-treated cells. In calculations, the readings for these wells were considered to be 1, and all readings were expressed relative to these values.
as §5
(In general: The SRB assay estimates cell density from bound dye.)

In data set [7] the test system is vancomycin-resistant Enterococcus (VRE) clinical isolates. Briefly: Broth microdilution MIC, clinical VRE isolates. The following applies: 24 h, 0.08–40 μM. It is filed as cell-based, E. faecium. The protocol: as §6, §2
The subject of data set [8] is A2780 cells. Kind of data set: MTT reduction assay, early toxicity, 4 h treatment. The data set is classed as cell-based. The following applies: inhibition at maximum concentration (100 μM) where no plateau, ND = not detectable. On the procedure: as §3, §4, §5
Setting [9] is: clinical isolate 20,426 MRSA, read-out: MIC 20,426 MRSA.
[10] abbreviates: clinical isolate 24,035 MRSA, read-out: MIC 24,035 MRSA.
[11] abbreviates: clinical isolate 24,268 MRSA, read-out: MIC 24,268 MRSA.
Setting [12] is: clinical isolate 24,272 MRSA, read-out: MIC 24,272 MRSA.
Where [13] appears, read: clinical isolate 24,328 MRSA, read-out: MIC 24,328 MRSA.
The mark [14] stands for this setting: clinical isolate 24,408 MRSA, read-out: MIC 24,408 MRSA.
Where [15] appears, read: clinical isolate 25,051 VRE, read-out: MIC 25,051 VRE.
The mark [16] stands for this setting: clinical isolate 25,498 VRE, read-out: MIC 25,498 VRE.
Setting [17] is: clinical isolate 27,085 VRE, read-out: MIC 27,085 VRE.

pIC50: −log10 of the molar value. Where two headings read alike, the source gives them in different places.

The MIC is the lowest concentration found to suppress growth. One may read the logD as lipophilicity at a set pH, counting ionised and neutral species. Low readings indicate a more hydrophilic compound, high ones a more lipophilic compound. As a reminder, the pIC50 is the IC50 on a negative log10 scale, so that one unit is a factor of ten. A higher pIC50 goes with a small IC50. By inhibition is commonly meant the drop in the measured response relative to a control, in per cent.

`Cc1c(C)c(C)[c-](C)c1C.F[P-](F)(F)(F)(F)F.N[C@@H]1[C@@H](OCc2ccccc2)[C@H](OCc2ccccc2)[C@@H](COCc2ccccc2)O[C@H]1c1ccccn1.[Cl][Rh+2]` [Rh-3a]: the minimum inhibitory concentration (MIC) in data set [1] (24 h), in data set [2], in data set [4] (setting [9]), in data set [4] (setting [10]), in data set [4] (setting [11]) and in data set [4] (setting [12]) was more than 40 µM throughout. In addition, the MIC in data set [4] (setting [13]), in data set [4] (setting [14]), in data set [7] (setting [15]), in data set [7] (setting [16]) and in data set [7] (setting [17]) was more than 40 µM each time. In addition, the “Fibroblast MTT Max Inhibition” value in data set [3] was found to be 37.82%. Also, the logD in data set [5] amounted to 1.64. In data set [6], the pIC50 was 5.01. The “A2780 SRB Max Inhibition” value in data set [6] was more than 90%.
Consider `Cc1ccc(C(C)C)cc1.F[P-](F)(F)(F)(F)F.N[C@@H]1[C@@H](OC(=O)c2ccccc2)[C@H](OC(=O)c2ccccc2)[C@@H](COC(=O)c2ccccc2)O[C@H]1c1ccc2ccccc2n1.[Cl][Ru+]` [Ru-7e], for which the MIC in data set [1] (24 h), in data set [2], in data set [4] (setting [9]), in data set [4] (setting [10]), in data set [4] (setting [11]) and in data set [4] (setting [12]) was more than 40 µM each time. The MIC in data set [4] (setting [13]), in data set [4] (setting [14]), in data set [7] (setting [15]), in data set [7] (setting [16]) and in data set [7] (setting [17]) was more than 40 µM each time. For the same compound, the “A2780 MTT Max Inhibition” value in data set [8] turned out to be 27.04%. The compound also displayed a logD in data set [5] of 2.22. For the same compound, the “A2780 SRB Max Inhibition” value in data set [6] turned out to be 67.50%.
As to `N[C@@H]1[C@@H](OC(=O)c2ccccc2)[C@H](OC(=O)c2ccccc2)[C@@H](COC(=O)c2ccccc2)O[C@H]1c1cccnn1` [Complex 7b, 3-(2′-Amino-2′-deoxy-3′,4′,6′-tri-O-benzoyl-β-D-glucopyranosyl)pyridazine], the MIC was more than 40 µM in data set [1] (Staphylococcus aureus, ATCC29213, 24 h); more than 40 µM in data set [2] (Enterococcus faecalis); more than 40 µM in data set [4] (Staphylococcus aureus, clinical isolate 20,426 MRSA, read-out: MIC 20,426 MRSA); more than 40 µM in data set [4] (Staphylococcus aureus, clinical isolate 24,035 MRSA, read-out: MIC 24,035 MRSA); more than 40 µM in data set [4] (Staphylococcus aureus, clinical isolate 24,268 MRSA, read-out: MIC 24,268 MRSA); more than 40 µM in data set [4] (Staphylococcus aureus, clinical isolate 24,272 MRSA, read-out: MIC 24,272 MRSA). The MIC in data set [4] (Staphylococcus aureus, clinical isolate 24,328 MRSA, read-out: MIC 24,328 MRSA) is more than 40 µM; in data set [4] (Staphylococcus aureus, clinical isolate 24,408 MRSA, read-out: MIC 24,408 MRSA), more than 40 µM; in data set [7] (Enterococcus, clinical isolate 25,051 VRE, read-out: MIC 25,051 VRE), more than 40 µM; in data set [7] (Enterococcus, clinical isolate 25,498 VRE, read-out: MIC 25,498 VRE), more than 40 µM; in data set [7] (Enterococcus, clinical isolate 27,085 VRE, read-out: MIC 27,085 VRE), more than 40 µM. Besides, the inhibition at 100 µM in data set [8] (Homo sapiens, read-out: A2780 MTT Max Inhibition) came to 9.12%. Also, in data set [3], the “Fibroblast MTT Max Inhibition” value was found to be 11.39%. Further, in data set [6], the “A2780 SRB Max Inhibition” value was found to be 18.38%.
On to `Cc1c(C)c(C)[c-](C)c1C.F[P-](F)(F)(F)(F)F.N[C@@H]1[C@@H](OC(=O)c2ccccc2)[C@H](OC(=O)c2ccccc2)[C@@H](COC(=O)c2ccccc2)O[C@H]1c1ccc2ccccc2n1.[Cl][Rh+2]` [Rh-7e], for which the MIC in data set [1] (24 h), in data set [2], in data set [4] (setting [9]), in data set [4] (setting [10]), in data set [4] (setting [11]) and in data set [4] (setting [12]) was more than 40 µM each time. In addition, the MIC in data set [4] (setting [13]), in data set [4] (setting [14]), in data set [7] (setting [15]), in data set [7] (setting [16]) and in data set [7] (setting [17]) was more than 40 µM each time. In data set [8], the “A2780 MTT Max Inhibition” value is given as 31.89%. The compound further showed a logD in data set [5] of 1.66. Further, the “A2780 SRB Max Inhibition” value in data set [6] was 67.32%.
For `Cc1ccc(C(C)C)cc1.F[P-](F)(F)(F)(F)F.N[C@@H]1[C@@H](OC(=O)c2ccccc2)[C@H](OC(=O)c2ccccc2)[C@@H](COC(=O)c2ccccc2)O[C@H]1c1ccc2ccccc2n1.[Cl][Os+]` [Os-7e], the MIC in data set [1] (24 h), in data set [2], in data set [4] (setting [9]), in data set [4] (setting [10]), in data set [4] (setting [11]) and in data set [4] (setting [12]) was more than 40 µM each time. Further, the MIC in data set [4] (setting [13]), in data set [4] (setting [14]), in data set [7] (setting [15]), in data set [7] (setting [16]) and in data set [7] (setting [17]) was more than 40 µM in each case. The “A2780 MTT Max Inhibition” value in data set [8] was found to be 27.04%. The compound also registered a logD in data set [5] of 2.21. In addition, the “A2780 SRB Max Inhibition” value in data set [6] is 67.50%.

For the origin of these results see publication PMC10096180, “Half-Sandwich Type Platinum-Group Metal Complexes of C-Glucosaminyl Azines: Synthesis and Antineoplastic and Antimicrobial Activities” (Molecules, 2023).
